One data set relates to P. yoelii. Kind of data set: ALA-induced fluorescence within erythrocytes parasitized by P. yoelii, mice given ALA. To be noted: ALA injected into infected mice.
For data set [1] the following is noted: very large doses; cited from earlier work.
For data set [2] the following is noted: following intravenous injection; occasionally more than two months; cited from earlier work.

For `NCC(=O)CCC(=O)O` [5-aminolevulinic acid (ALA)], in the data set with P. yoelii, the “PpIX accumulation in non-infected erythrocytes and leukocytes” value is recorded as “no such accumulation of protoporphyrin”; the “PpIX accumulation in plasmodia within erythrocytes” value was “accumulation of fluorescing and photosensitizing concentrations of protoporphyrin within metabolically active parasites”.
As for `CC1=C(CCC(=O)O)c2cc3[nH]c(cc4nc(cc5[nH]c(cc1n2)c(C)c5C(C)O)C(C)=C4C(C)O)c(C)c3CCC(=O)O` (stereo not shown) [HpIX, Hematoporphyrin IX, reference compound], the “effect on motor nerve conduction velocity” value in data set [1] is reported as “transient decrease in motor nerve conduction velocity”. For the same compound, the “persistence of photosensitizing amount of porphyrin in the skin” value in data set [2] was “at least two weeks”.

The record behind these values is US6710066B2, “Photochemotherapeutic method using 5-aminolevulinic acid and other precursors of endogenous porphyrins” (priority 1989, dated 2004).
